{
  "source": "patent US7495027B2",
  "about": "“3-aryl-4-hydroxyfuranone compounds and the human and animal health use thereof” (Wyeth, priority 2003, dated 2009)",
  "data": [
    {"test_system": "C. elegans", "experiment": "Efficacy against nematodes (C. elegans motility rating)", "parameters": "key: 0: no effect; 7: reduced movement in 24 h; 8: dead in 24 h; 9: dead in 4 h", "details": "dose 200 μM, observations at 4 h and 24 h postimmersion", "experimental": "(§1) Evaluation of the Efficacy of a 3-Aryl-4-Hydroxyfuranone Against Nematodes\n(§2) In this evaluation, cultures of C. elegans are maintained on E. coli lawns on Nematode Growth Agar at 20° C. New cultures are established twice a week. Nematodes for testing are rinsed from plates using M9 Buffer. […] One μL of this solution is added to each well of a 96 well plate. A mixture of C. elegans in M9 Buffer (100 μL) is added to each well, such that approximately 50 worms of mixed stages (L1, L2, L3, L4 and adults) are present in each well at a final concentration of 100 ppm, 150 ppm or […] of test compound. Concentration of test compound may be varied by gradient dilution of the stock DMSO solution. Observations are made under a dissecting microscope at 4 h and 24 h postimmersion. A rating is based on the motility of the larvae and adults, using the rating system shown below.", "values": [
      {"smiles": "CCCc1ccc(-c2ccc(C3=C(O)/C(=C/c4cccc(C(F)(F)F)c4Cl)OC3=O)cc2)cc1", "Rating": 9},
      {"smiles": "O=C1O/C(=C\\c2cc(F)cc(C(F)(F)F)c2)C(O)=C1c1cccc(-c2ccccc2)c1", "note": "[R=H; R1=3-biphenyl; R2=3-F-5-CF3—C6H3]", "Rating": 9},
      {"smiles": "Cc1ccc(C)c(C2=C(O)/C(=C/c3cc(C(F)(F)F)ccc3Cl)OC2=O)c1", "Rating": 0},
      {"smiles": "CCc1ccc(C2=C(O)/C(=C/c3cc(C(F)(F)F)ccc3Cl)OC2=O)cc1", "Rating": 9},
      {"smiles": "CCCCc1ccc(-c2ccc(C3=C(O)/C(=C/c4cc(C(F)(F)F)ccc4F)OC3=O)cc2)cc1", "Rating": 0},
      {"smiles": "CC(C)c1cccc(C2=C(O)/C(=C/c3cc(C(F)(F)F)ccc3Cl)OC2=O)c1", "Rating": 0},
      {"smiles": "Cc1ccc(C2=C(O)/C(=C/c3cc(C(F)(F)F)ccc3Cl)OC2=O)cc1C", "Rating": 0},
      {"smiles": "CCCc1ccc(-c2ccc(C3=C(O)/C(=C/c4cc(C(F)(F)F)ccc4F)OC3=O)cc2)cc1", "Rating": 9},
      {"smiles": "O=C1O/C(=C\\c2cc(C(F)(F)F)ccc2F)C(O)=C1c1cccc(-c2ccccc2)c1", "note": "[R=H; R1=3-biphenyl; R2=2-F-5-CF3—C6H3]", "Rating": 9},
      {"smiles": "O=C1OC(=Cc2cc(C(F)(F)F)ccc2Cl)C(O)=C1c1ccc(-c2ccccc2)cc1", "note": "[R=H; R1=4-biphenyl; R2=2-Cl-5-CF3—C6H3]", "Rating": 9},
      {"smiles": "CCCCc1ccc(-c2ccc(C3=C(O)C(=Cc4cc(F)cc(C(F)(F)F)c4)OC3=O)cc2)cc1", "Rating": 9},
      {"smiles": "O=C1OC(=Cc2cc(F)cc(C(F)(F)F)c2)C(O)=C1c1ccc(-c2ccccc2)cc1", "note": "[R=H; R1=4-biphenyl; R2=3-F-5-CF3—C6H3]", "Rating": 9},
      {"smiles": "CCCCc1ccc(-c2ccc(C3=C(O)C(=Cc4cccc(C(F)(F)F)c4Cl)OC3=O)cc2)cc1", "Rating": 9},
      {"smiles": "O=C1OC(=Cc2cccc(C(F)(F)F)c2)C(O)=C1c1ccc(-c2ccccc2)cc1", "note": "[R=H; R1=4-biphenyl; R2=3-CF3—C6H4]", "Rating": 9}
    ]},
    {"test_system": "C. elegans", "experiment": "Efficacy against nematodes (C. elegans motility rating)", "parameters": "key: 0: no effect; 7: reduced movement in 24 h; 8: dead in 24 h; 9: dead in 4 h", "details": "dose 100 ppm, observations at 4 h and 24 h postimmersion", "experimental": "as §1, §2", "values": [
      {"smiles": "O=C1OC(=Cc2cnccc2-c2cccc(Cl)c2)C(O)=C1c1ccc(OC(F)(F)F)cc1", "note": "(mixture of isomers)", "Rating": 9},
      {"smiles": "O=C1O/C(=C\\c2ccc(Cl)cc2)C(O)=C1c1ccc(Cl)s1", "Rating": 9},
      {"smiles": "O=C1OC(=Cc2ccc3c(c2)OC(F)(F)O3)C(O)=C1c1ccc(OC(F)(F)F)cc1", "note": "(mixture of isomers)", "Rating": 9},
      {"smiles": "O=C1OC(=Cc2ccc(-n3cncn3)cc2)C(O)=C1c1ccc(OC(F)(F)F)cc1", "note": "(mixture of isomers)", "Rating": 9},
      {"smiles": "O=C1OC(=Cc2ccccc2C(F)(F)F)C(O)=C1c1ccc(Cl)cc1", "note": "(mixture of isomers) [R=H; R1=4-Cl—C6H4**; R2=2-CF3—C6H4]", "Rating": 9},
      {"smiles": "N#Cc1ccc(/C=C2\\OC(=O)C(c3ccc(Cl)s3)=C2O)cc1", "Rating": 9},
      {"smiles": "O=C1OC(=Cc2ccc(C(F)(F)F)cc2F)C(O)=C1c1ccc(OC(F)(F)F)cc1", "note": "(mixture of isomers) [R=H; R1=4-OCF3—C6H4**; R2=2-F-4-CF3—C6H3]", "Rating": 9},
      {"smiles": "O=C1OC(=Cc2ccc(Br)o2)C(O)=C1c1ccc(OC(F)(F)F)cc1", "note": "(mixture of isomers)", "Rating": 9},
      {"smiles": "O=C1OC(=Cc2ccc(Cl)cc2)C(O)=C1c1ccc(C(F)(F)F)cc1", "note": "(mixture of isomers) [R=H; R1=4-CF3—C6H4**; R2=4-Cl—C6H4]", "Rating": 9},
      {"smiles": "O=C1OC(=Cc2ccc(-c3ccc(F)c(C(F)(F)F)c3)o2)C(O)=C1c1ccc(OC(F)(F)F)cc1", "note": "(mixture of isomers)", "Rating": 9},
      {"smiles": "O=C1OC(=Cc2ccc(Cl)c(Cl)c2)C(O)=C1c1ccc(Cl)s1", "Rating": 9},
      {"smiles": "O=C1O/C(=C\\c2ccc(F)cc2)C(O)=C1c1ccc(Cl)s1", "Rating": 9},
      {"smiles": "Cc1nc(C=C2OC(=O)C(c3ccc(OC(F)(F)F)cc3)=C2O)c[nH]1", "note": "(mixture of isomers)", "Rating": 0},
      {"smiles": "Cc1ccccc1-n1ncc(C=C2OC(=O)C(c3ccc(OC(F)(F)F)cc3)=C2O)c1C", "note": "(mixture of isomers)", "Rating": 0},
      {"smiles": "CN1CCN(c2ccc(C=C3OC(=O)C(c4ccc(OC(F)(F)F)cc4)=C3O)cc2)CC1", "note": "(mixture of isomers)", "Rating": 0},
      {"smiles": "O=C1O/C(=C\\c2ccc(C(F)(F)F)cc2)C(O)=C1c1ccc(Cl)s1", "Rating": 9},
      {"smiles": "Cc1c(C=C2OC(=O)C(c3ccc(OC(F)(F)F)cc3)=C2O)cnn1-c1ccc(F)cc1", "note": "(mixture of isomers)", "Rating": 0},
      {"smiles": "O=C1OC(=Cc2ccc(SC(F)(F)F)cc2)C(O)=C1c1ccc(Cl)cc1", "note": "(mixture of isomers) [R=H; R1=4-Cl—C6H4**; R2=4-SCF3—C6H4]", "Rating": 9},
      {"smiles": "O=C1OC(=Cc2ccc(OCC3CC3)cc2)C(O)=C1c1ccc(Cl)cc1", "note": "(mixture of isomers)", "Rating": 7},
      {"smiles": "N#Cc1ccc(C2=C(O)C(=Cc3ccc(-c4ccc(C(F)(F)F)cc4)cc3)OC2=O)cc1", "note": "(mixture of isomers)", "Rating": 9},
      {"smiles": "O=C1OC(=Cc2ccc(-c3ccc(Cl)cc3)cc2)C(O)=C1c1ccc(OC(F)(F)F)cc1", "note": "(mixture of isomers)", "Rating": 9},
      {"smiles": "O=C1OC(=Cc2ccc(C(F)(F)F)cc2)C(O)=C1c1ccc(Cl)cc1", "note": "(mixture of isomers) [R=H; R1=4-Cl—C6H4**; R2=4-CF3—C6H4]", "Rating": 9},
      {"smiles": "Cn1cc(Cl)c(C=C2OC(=O)C(c3ccc(OC(F)(F)F)cc3)=C2O)n1", "note": "(mixture of isomers)", "Rating": 0},
      {"smiles": "O=C1OC(=Cc2ccncc2)C(O)=C1c1ccc(OC(F)(F)F)cc1", "note": "(mixture of isomers) [R=H; R1=4-OCF3—C6H4**; R2=pyridine-4-yl]", "Rating": 0},
      {"smiles": "O=C1OC(=Cc2c[nH]c(-c3ccccc3)n2)C(O)=C1c1ccc(OC(F)(F)F)cc1", "note": "(mixture of isomers)", "Rating": 0},
      {"smiles": "N#Cc1ccc(C2=C(O)C(=Cc3ccc(Cl)cc3Cl)OC2=O)cc1", "note": "(mixture of isomers) [R=H; R1=4-CN—C6H4**; R2=2,4-diCl—C6H4]", "Rating": 9},
      {"smiles": "Cc1cc(C=C2OC(=O)C(c3ccc(OC(F)(F)F)cc3)=C2O)n(C)n1", "note": "(mixture of isomers)", "Rating": 0}
    ]},
    {"test_system": "C. elegans", "experiment": "Efficacy against nematodes (C. elegans motility rating)", "parameters": "key: 0: no effect; 7: reduced movement in 24 h; 8: dead in 24 h; 9: dead in 4 h", "details": "dose 150 ppm, observations at 4 h and 24 h postimmersion", "experimental": "as §1, §2", "values": [
      {"smiles": "COC1=C(c2ccc(OC)cc2)C(=O)O/C1=C\\c1cccc(C(F)(F)F)c1", "note": "[R=CH3; R1=4-OCH3—C6H4; R2=3-CF3—C6H4]", "Rating": 0},
      {"smiles": "COc1cc(/C=C2\\OC(=O)C(c3cccc(Cl)c3)=C2O)ccc1-c1ccccc1Cl", "Rating": 8},
      {"smiles": "COc1ccc(/C=C2\\OC(=O)C(c3ccc(OC)cc3)=C2O)cc1", "note": "[R=H; R1=4-OCH3—C6H4; R2=4-OCH3—C6H4]", "Rating": 0},
      {"smiles": "O=C1OC(=Cc2ccccc2C(F)(F)F)C(O)=C1c1ccc(F)cc1", "note": "[R=H; R1=4-F—C6H4; R2=2-CF3—C6H4]", "Rating": 0},
      {"smiles": "COC(=O)c1ccc(C2=C(O)/C(=C/c3cccc4ccccc34)OC2=O)cc1", "note": "[R=H; R1=4-CO2CH3—C6H4; R2=1-naphthyl]", "Rating": 9},
      {"smiles": "O=C1O/C(=C\\c2ccc(N3CCN(c4ccccc4Cl)CC3)c(Cl)c2)C(O)=C1c1cc(Cl)cc(Cl)c1", "Rating": 0},
      {"smiles": "O=C1O/C(=C\\c2ccc(-c3cccc(C(F)(F)F)c3)cc2)C(O)=C1c1cccc(C(F)(F)F)c1", "Rating": 8},
      {"smiles": "O=C1O/C(=C\\c2ccccc2-c2cccc(Cl)c2)C(O)=C1c1cccc(Cl)c1", "note": "[R=H; R1=3-Cl—C6H4; R2=2-(3′-Cl-biphenyl)]", "Rating": 0},
      {"smiles": "O=C1O/C(=C\\c2cccc(C(F)(F)F)c2)C(O)=C1c1cccc(-c2ccccc2)c1", "note": "[R=H; R1=3-biphenyl; R2=3-CF3—C6H4]", "Rating": 0},
      {"smiles": "CC(=O)c1ccc(C2=C(O)C(=Cc3ccccc3C(F)(F)F)OC2=O)cc1", "note": "[R=H; R1=4-COCH3—C6H4; R2=2-CF3—C6H4]", "Rating": 0},
      {"smiles": "O=C1OC(=Cc2cccc(OCc3ccccc3)c2)C(O)=C1c1cc(Cl)cc(Cl)c1", "Rating": 0},
      {"smiles": "O=C1O/C(=C\\c2ccc(-c3ccccc3)cc2)C(O)=C1c1ccc(-c2ccccc2)cc1", "note": "[R=H; R1=4-biphenyl; R2=4-biphenyl]", "Rating": 9},
      {"smiles": "N#Cc1ccc(C2=C(O)C(=Cc3ccc(-c4ccc(C#N)cc4)cc3)OC2=O)cc1", "note": "[R=H; R1=4-CN—C6H4; R2=4-(4′-CN-biphenyl)]", "Rating": 8},
      {"smiles": "Cc1cc(/C=C2\\OC(=O)C(c3cccc(Cl)c3)=C2O)ccc1-c1ccccc1C(F)(F)F", "Rating": 9},
      {"smiles": "CC(=NO)c1ccc(C2=C(O)C(=Cc3cccc4ccccc34)OC2=O)cc1", "note": "[R=H; R1=4-(CH3C═NOH)—C6H4; R2=1-naphthyl]", "Rating": 7},
      {"smiles": "CCOC(=O)CNC(=O)CNC(=O)c1cccc(/C=C2\\OC(=O)C(c3cc(Cl)cc(Cl)c3)=C2O)c1", "Rating": 0},
      {"smiles": "Cc1cc(/C=C2\\OC(=O)C(c3cccc(Cl)c3)=C2O)ccc1-c1ccccc1Cl", "Rating": 9},
      {"smiles": "CC(=O)Nc1cccc(C2=C(O)C(=Cc3ccc(-c4cccc(NC(C)=O)c4)cc3)OC2=O)c1", "Rating": 0},
      {"smiles": "COc1ccc(/C=C2\\OC(=O)C(c3cc(Cl)cc(Cl)c3)=C2O)c2ccccc12", "Rating": 0},
      {"smiles": "O=C1O/C(=C\\c2cccc(C(F)(F)F)c2)C(O)=C1c1ccc(Cl)cc1", "note": "[R=H; R1=4-Cl—C6H4; R2=3-CF3—C6H4]", "Rating": 9},
      {"smiles": "COc1ccc(/C=C2\\OC(=O)C(c3cccc(Cl)c3)=C2O)c2ccccc12", "Rating": 9},
      {"smiles": "O=C1OC(=Cc2cccc(Cl)c2)C(O)=C1c1ccc(Cl)cc1", "note": "(mixture of isomers) [R=H; R1=4-Cl—C6H4**; R2=3-Cl—C6H4]", "Rating": 9},
      {"smiles": "O=C1OC(=Cc2ccc(-c3cc(C(F)(F)F)cc(C(F)(F)F)c3)cc2)C(O)=C1c1cc(C(F)(F)F)cc(C(F)(F)F)c1", "Rating": 0},
      {"smiles": "COc1cc(/C=C2\\OC(=O)C(c3cc(Cl)cc(Cl)c3)=C2O)ccc1-c1ccccc1C", "Rating": 9},
      {"smiles": "O=C1O/C(=C\\c2cc(C(F)(F)F)ccc2Cl)C(O)=C1c1ccc(N2CCOCC2)c(F)c1", "Rating": 0},
      {"smiles": "Cc1ccccc1-c1ccc(C=C2OC(=O)C(c3cc(Cl)cc(Cl)c3)=C2O)cc1C", "Rating": 0},
      {"smiles": "N#Cc1ccc(/C=C2\\OC(=O)C(c3ccc(C#N)cc3)=C2O)cc1", "note": "[R=H; R1=4-CN—C6H4**; R2=4-CN—C6H4]", "Rating": 9}
    ]}
  ]
}
